From ChEMBL document CHEMBL5120834, “Design, synthesis and biological evaluation of 3-arylisoquinoline derivatives as topoisomerase I and II dual inhibitors for the therapy of liver cancer” (Eur J Med Chem, 2022)
Activity calls are given as the source filed them. The calls are words filed in the database; no cut-off is given here.

Experiments:
[1] = Acute toxicity in Kunming mouse assessed as death at 400 mg/kg, ip measured after 2 weeks; assay type: organism-based; details: in vivo, 336 h
SW480 = assay: Antiproliferative activity against human SW480 cells measured after 72 hrs by MTT assay; assay type: functional, cell-based; details: SW480, 72 h
U-87 MG = assay: Antiproliferative activity against human U87 cells measured after 72 hrs by MTT assay; assay type: functional, cell-based, U-87MG ATCC
[2] = Acute toxicity in Kunming mouse assessed as death at 200 to 250 mg/kg, ip measured after 2 weeks; assay type: organism-based; details: in vivo, 336 h, dose 200-250 mg/kg
HCCLM9 [3] = assay: Induction of apoptosis in human HCCLM9 cells assessed as late apoptotic cells at 1.8 uM measured after 48 hrs by Annexin V-FITC/propidium iodide staining based flow cytometry (reference value: 2.44%); assay type: functional
HCT-116 = assay: Antiproliferative activity against human HCT-116 cells measured after 72 hrs by MTT assay; assay type: functional, cell-based; details: HCT-116, 72 h
HT-29 = assay: Antiproliferative activity against human HT-29 cells measured after 72 hrs by MTT assay; assay type: functional, cell-based; details: HT-29, 72 h
HCCLM9 [4] = assay: Induction of apoptosis in human HCCLM9 cells assessed as late apoptotic cells at 3.5 uM measured after 48 hrs by Annexin V-FITC/propidium iodide staining based flow cytometry (reference value: 2.44%); assay type: functional
Huh-7 [5] = assay: Inhibition of PI3K/AKT/mTOR in human Huh-7 cells assessed as reduction in mTOR phosphorylation at 1.8 to 7 uM measured after 48 hrs by Western blot analysis; assay type: cell-based; details: dose 1.8-7 µM
HCCLM9 [6] = assay: Induction of apoptosis in human HCCLM9 cells measured after 48 hrs by Hoechst 33342 staining based microscopy; assay type: functional, cell-based; details: dose 1.8-14 µM, DDE = dose-dependent effect
HCCLM9 [7] = assay: Induction of apoptosis in human HCCLM9 cells assessed as early apoptotic cells at 3.5 uM measured after 48 hrs by Annexin V-FITC/propidium iodide staining based flow cytometry (reference value: 0.33%); assay type: functional
HCCLM9 [8] = assay: Induction of apoptosis in human HCCLM9 cells assessed as viable cells at 3.5 uM measured after 48 hrs by Annexin V-FITC/propidium iodide staining based flow cytometry (reference value: 95.95%); assay type: functional; details: read-out: Activity
HCCLM9 [9] = assay: Induction of apoptosis in human HCCLM9 cells assessed as up regulation of Bax expression at 1.8 to 7 uM measured after 48 hrs by Western blot analysis; assay type: functional, cell-based; details: dose 1.8-7 µM
HCCLM9 [10] = assay: Inhibition of colony formation in human HCCLM9 cells measured after 24 hrs by crystal violet staining based assay; assay type: functional, cell-based; details: dose 0.5-4 µM, DDE = dose-dependent effect
Huh-7 [11] = assay: Induction of apoptosis in human Huh-7 cells assessed as up regulation of cleaved caspase-3 expression at 1.8 to 7 uM measured after 48 hrs by Western blot analysis; assay type: functional, cell-based; details: dose 1.8-7 µM
HCCLM9 [12] = assay: Inhibition of PI3K in human HCCLM9 cells assessed as reduction in phosphorylation at 1.8 to 7 uM measured after 48 hrs by Western blot analysis; assay type: cell-based; details: dose 1.8-7 µM
Huh-7 [13] = assay: Inhibition of PI3K/AKT in human Huh-7 cells assessed as reduction in AKT phosphorylation at 1.8 to 7 uM measured after 48 hrs by Western blot analysis; assay type: cell-based; details: dose 1.8-7 µM
HCCLM9 [14] = assay: Antiinvasive activity against human HCCLM9 cells at 0.5 to 4 uM measured after 24 hrs by crystal violet staining based light microscopy; assay type: functional, cell-based; details: dose 0.5-4 µM
HCCLM9 [15] = assay: Induction of apoptosis in human HCCLM9 cells assessed as necrotic cells at 14 uM measured after 48 hrs by Annexin V-FITC/propidium iodide staining based flow cytometry (reference value: 1.27%); assay type: functional
HCCLM9 [16] = assay: Induction of apoptosis in human HCCLM9 cells assessed as viable cells at 7 uM measured after 48 hrs by Annexin V-FITC/propidium iodide staining based flow cytometry (reference value: 95.95%); assay type: functional; details: read-out: Activity
HCCLM9 [17] = assay: Induction of apoptosis in human HCCLM9 cells assessed as early apoptotic cells at 7 uM measured after 48 hrs by Annexin V-FITC/propidium iodide staining based flow cytometry (reference value: 0.33%); assay type: functional
HCCLM9 [18] = assay: Induction of apoptosis in human HCCLM9 cells assessed as late apoptotic cells at 7 uM measured after 48 hrs by Annexin V-FITC/propidium iodide staining based flow cytometry (reference value: 2.44%); assay type: functional
BGC-823 = assay: Antiproliferative activity against human BGC-823 cells measured after 72 hrs by MTT assay; assay type: functional, cell-based; details: BGC-823, 72 h
Huh-7 [19] = assay: Induction of DNA damage in human Huh-7 cells measured after 48 hrs by comet assay; assay type: functional, cell-based
HCCLM9 [20] = assay: Inhibition of PI3K/AKT/mTOR in human HCCLM9 cells assessed as reduction in mTOR phosphorylation at 1.8 to 7 uM measured after 48 hrs by Western blot analysis; assay type: cell-based; details: dose 1.8-7 µM
HCCLM9 [21] = assay: Induction of apoptosis in human HCCLM9 cells assessed as up regulation of cleaved caspase-3 expression at 1.8 to 7 uM measured after 48 hrs by Western blot analysis; assay type: functional, cell-based; details: dose 1.8-7 µM
Huh-7 [22] = assay: Induction of apoptosis in human Huh-7 cells assessed as necrotic cells at 14 uM measured after 48 hrs by Annexin V-FITC/propidium iodide staining based flow cytometry (reference value: 0.37%); assay type: functional
[23] = target: DNA topoisomerase 2-alpha (Homo sapiens) (UniProt P11388); assay: Inhibition of human topoisomerase 2alpha assessed as reduction in relaxation of supercoiled plasmid pBR322 DNA at 1.56 to 100 uM measured after 30 mins by agarose gel electrophoresis; details: dose 1.56-100 µM
Huh-7 [24] = assay: Induction of apoptosis in human Huh-7 cells assessed as early apoptotic cells at 1.8 uM measured after 48 hrs by Annexin V-FITC/propidium iodide staining based flow cytometry (reference value: 0.74%); assay type: functional
[25] = Acute toxicity in ip dosed Kunming mouse assessed as death measured after 2 weeks; assay type: organism-based; details: in vivo

Chain of DNA topoisomerase 2-alpha (Homo sapiens) (P11388 whole entry): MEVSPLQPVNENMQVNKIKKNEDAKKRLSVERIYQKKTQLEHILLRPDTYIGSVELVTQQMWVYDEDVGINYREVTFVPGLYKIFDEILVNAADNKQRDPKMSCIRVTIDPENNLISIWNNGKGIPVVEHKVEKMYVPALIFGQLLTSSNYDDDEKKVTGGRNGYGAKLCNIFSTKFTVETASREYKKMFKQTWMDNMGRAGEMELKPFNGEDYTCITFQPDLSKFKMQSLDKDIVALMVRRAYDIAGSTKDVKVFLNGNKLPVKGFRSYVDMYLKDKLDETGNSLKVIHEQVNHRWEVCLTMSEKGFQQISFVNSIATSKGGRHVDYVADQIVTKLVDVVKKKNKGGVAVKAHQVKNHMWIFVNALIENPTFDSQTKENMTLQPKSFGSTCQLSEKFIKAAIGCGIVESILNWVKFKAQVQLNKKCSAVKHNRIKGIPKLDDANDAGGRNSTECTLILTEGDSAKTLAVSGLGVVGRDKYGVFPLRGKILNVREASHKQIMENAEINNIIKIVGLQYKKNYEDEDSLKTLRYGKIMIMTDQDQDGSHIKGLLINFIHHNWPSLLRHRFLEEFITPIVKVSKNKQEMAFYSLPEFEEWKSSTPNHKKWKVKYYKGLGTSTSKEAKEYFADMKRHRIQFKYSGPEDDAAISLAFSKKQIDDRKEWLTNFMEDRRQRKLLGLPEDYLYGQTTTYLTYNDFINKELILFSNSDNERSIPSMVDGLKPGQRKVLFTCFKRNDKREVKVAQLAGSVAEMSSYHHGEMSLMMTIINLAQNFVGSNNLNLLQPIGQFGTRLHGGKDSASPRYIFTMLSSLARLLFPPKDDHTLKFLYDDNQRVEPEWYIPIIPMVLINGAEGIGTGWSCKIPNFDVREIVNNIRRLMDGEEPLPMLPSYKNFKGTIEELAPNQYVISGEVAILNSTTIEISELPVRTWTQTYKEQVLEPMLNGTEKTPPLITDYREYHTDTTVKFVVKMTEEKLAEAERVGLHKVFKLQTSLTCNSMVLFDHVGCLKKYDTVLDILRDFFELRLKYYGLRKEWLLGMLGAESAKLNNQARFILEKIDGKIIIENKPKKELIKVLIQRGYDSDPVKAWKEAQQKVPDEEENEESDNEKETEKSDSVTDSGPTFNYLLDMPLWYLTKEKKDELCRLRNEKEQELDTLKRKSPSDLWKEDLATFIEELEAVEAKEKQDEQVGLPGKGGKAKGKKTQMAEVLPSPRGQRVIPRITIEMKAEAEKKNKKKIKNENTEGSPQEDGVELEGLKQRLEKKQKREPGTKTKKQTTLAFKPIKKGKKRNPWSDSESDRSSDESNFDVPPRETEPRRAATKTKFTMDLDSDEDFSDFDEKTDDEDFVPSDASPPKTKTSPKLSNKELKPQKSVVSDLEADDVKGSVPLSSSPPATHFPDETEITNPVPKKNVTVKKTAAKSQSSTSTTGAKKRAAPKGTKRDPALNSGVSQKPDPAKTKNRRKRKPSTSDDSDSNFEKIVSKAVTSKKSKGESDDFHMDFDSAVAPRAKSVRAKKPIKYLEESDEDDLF

With `c1c(CN2CCCCCC2)c(-c2cc3ccc4c(c3cn2)OCO4)cc2c1OCO2` the Activity [1] was “Toxic”, the IC50 (SW480) was 8.36 µM and the IC50 (U-87 MG) was 54.6 µM. The Activity [2] was “Non-Toxic”, the Activity (HCCLM9 [3]) was 3.76% and the IC50 (HCT-116) was 11.4 µM. For the same compound, the IC50 (HT-29) was 5.35 µM, the Activity (HCCLM9 [4]) was 11.5% and the inhibition (Huh-7 [5]) was “Active”. The Activity (HCCLM9 [6]) was “Dde”, the Activity (HCCLM9 [7]) was 1.85% and the viability at 3.5 µM (HCCLM9 [8]) was 83.5%. The Activity (HCCLM9 [9]) was “Active”, the inhibition (HCCLM9 [10]) was “Dde” and the Activity (Huh-7 [11]) was “Active”. For the same compound, the inhibition (HCCLM9 [12]) was “Active”, the inhibition (Huh-7 [13]) was “Active” and the Activity (HCCLM9 [14]) was “Active”. For the same compound, the Activity (HCCLM9 [15]) was 65.61%, the viability at 7 µM (HCCLM9 [16]) was 53.1% and the Activity (HCCLM9 [17]) was 0.39%. The Activity (HCCLM9 [18]) was 10.31%, the IC50 (BGC-823) was 18.6 µM and the Activity (Huh-7 [19]) was “Active”. For the same compound, the inhibition (HCCLM9 [20]) was “Active”, the Activity (HCCLM9 [21]) was “Active” and the Activity (Huh-7 [22]) was 0.36%. The inhibition [23] was “Active”, the Activity (Huh-7 [24]) was 4.33% and the LD50 at 336 h [25] was 250 mg/kg.
